Assays:
[1] = Drug uptake in iv dosed rhesus monkey striatum by PET imaging based analysis; assay type: ADME, organism-based, Macaca mulatta; conditions: in vivo
[2] = Drug uptake in iv dosed Sprague-Dawley rat striatum measured for 90 mins by PET imaging based analysis; assay type: ADME, organism-based; conditions: in vivo, 1.5 h
[3] = Drug uptake in iv dosed Sprague-Dawley rat hippocampus measured for 90 mins by PET imaging based analysis; assay type: ADME, organism-based; conditions: in vivo, 1.5 h
[4] = Drug uptake in iv dosed rhesus monkey cortex measured after 60 mins by PET imaging based analysis; assay type: ADME, organism-based, Macaca mulatta; conditions: in vivo, 1 h
[5] = Drug uptake in mouse brain treated with MAGL inhibitor, JNJ-42226314 at 15 mins post-drug administration by PET imaging based analysis; assay type: ADME, tissue-based; conditions: in vivo, 0.25 h
[6] = Drug uptake in iv dosed rhesus monkey cortex pretreated with MAGL inhibitor, […] PET imaging based analysis; assay type: ADME, organism-based, Macaca mulatta; conditions: in vivo
[7] = Drug uptake in iv dosed CD-1 mouse liver measured after 60 mins by Ex vivo whole body biodistribution based analysis; assay type: ADME, organism-based; conditions: 1 h
[8] = Drug uptake in iv dosed Sprague-Dawley rat cerebellum measured for 90 mins by PET imaging based analysis; assay type: ADME, organism-based; conditions: in vivo, 1.5 h
[9] = Drug uptake in iv dosed rhesus monkey pons measured after 60 mins by PET imaging based analysis; assay type: ADME, organism-based, Macaca mulatta; conditions: in vivo, 1 h
[10] = Drug uptake in iv dosed rhesus monkey hippocampus by PET imaging based analysis; assay type: ADME, organism-based, Macaca mulatta; conditions: in vivo
[11] = Metabolic stability of the compound in iv dosed Sprague-Dawley rat plasma assessed as parent compound remaining measured after 60 mins by radio-HPLC analysis; assay type: ADME, organism-based; conditions: read-out: Stability
[12] = Drug uptake in iv dosed CD-1 mouse kidney measured after 60 mins by Ex vivo whole body biodistribution based analysis; assay type: ADME, organism-based; conditions: 1 h
[13] = Drug uptake in iv dosed rhesus monkey brain by PET imaging based analysis; assay type: ADME, organism-based, Macaca mulatta; conditions: in vivo
[14] = Drug uptake in iv dosed rhesus monkey striatum pretreated with MAGL inhibitor, […] PET imaging based analysis; assay type: ADME, organism-based, Macaca mulatta; conditions: in vivo
[15] = Drug uptake in iv dosed rhesus monkey hippocampus pretreated with MAGL inhibitor, […] PET imaging based analysis; assay type: ADME, organism-based, Macaca mulatta; conditions: in vivo
[16] = Metabolic stability of the compound in iv dosed Sprague-Dawley rat brain assessed as parent compound remaining measured after 60 mins by radio-HPLC analysis; assay type: ADME, organism-based; conditions: read-out: Stability
[17] = Metabolic stability of the compound in iv dosed Sprague-Dawley rat plasma assessed as parent compound remaining measured after 30 mins by radio-HPLC analysis; assay type: ADME, organism-based; conditions: read-out: Stability
[18] = Drug uptake in iv dosed rhesus monkey striatum measured after 60 mins by PET imaging based analysis; assay type: ADME, organism-based, Macaca mulatta; conditions: in vivo, 1 h
[19] = Metabolic stability of the compound in iv dosed Sprague-Dawley rat brain assessed as parent compound remaining measured after 30 mins by radio-HPLC analysis; assay type: ADME, organism-based; conditions: read-out: Stability
[20] = Drug uptake in iv dosed Sprague-Dawley rat pons measured for 90 mins by PET imaging based analysis; assay type: ADME, organism-based; conditions: in vivo, 1.5 h
[21] = Drug uptake in iv dosed rhesus monkey hippocampus measured after 60 mins by PET imaging based analysis; assay type: ADME, organism-based, Macaca mulatta; conditions: in vivo, 1 h
[22] = Drug uptake in iv dosed rhesus monkey cerebellum pretreated with MAGL inhibitor, […] PET imaging based analysis; assay type: ADME, organism-based, Macaca mulatta; conditions: in vivo
[23] = Drug uptake in iv dosed Sprague-Dawley rat cerebral cortex measured for 90 mins by PET imaging based analysis; assay type: ADME, organism-based; conditions: in vivo, 1.5 h
[24] = Drug uptake in iv dosed rhesus monkey cerebellum measured after 60 mins by PET imaging based analysis; assay type: ADME, organism-based, Macaca mulatta; conditions: in vivo, 1 h
[25] = Drug uptake in iv dosed rhesus monkey pons by PET imaging based analysis; assay type: ADME, organism-based, Macaca mulatta; conditions: in vivo
[26] = Drug uptake in iv dosed CD-1 mouse small intestine measured after 60 mins by Ex vivo whole body biodistribution based analysis; assay type: ADME, organism-based; conditions: 1 h
[27] = Drug uptake in iv dosed CD-1 mouse lung measured after 60 mins by Ex vivo whole body biodistribution based analysis; assay type: ADME, organism-based; conditions: 1 h
[28] = Drug uptake in iv dosed CD-1 mouse pancreas measured after 60 mins by Ex vivo whole body biodistribution based analysis; assay type: ADME, organism-based; conditions: 1 h
[29] = Drug uptake in iv dosed rhesus monkey cortex by PET imaging based analysis; assay type: ADME, organism-based, Macaca mulatta; conditions: in vivo
[30] = Drug uptake in iv dosed rhesus monkey cerebellum by PET imaging based analysis; assay type: ADME, organism-based, Macaca mulatta; conditions: in vivo
[31] = Drug uptake in iv dosed CD-1 mouse heart measured after 60 mins by Ex vivo whole body biodistribution based analysis; assay type: ADME, organism-based; conditions: 1 h

Drug uptake [1]: Active
Drug uptake [2]: Active
Drug uptake [3]: Active
Drug uptake [4]: Active
Drug uptake [5]: Not Active
Drug uptake [6]: Not Active
Drug uptake [7]: Active
Drug uptake [8]: Active
Drug uptake [9]: Not Active
Drug uptake [10]: Active
remaining at 1 h [11]: 40%
Drug uptake [12]: Not Active
SUVmax [13]: 1.2
Drug uptake [14]: Not Active
Drug uptake [15]: Not Active
remaining at 1 h [16]: 98%
remaining at 0.5 h [17]: 53%
Drug uptake [18]: Active
remaining at 0.5 h [19]: 95%
Drug uptake [20]: Active
Drug uptake [21]: Active
Drug uptake [22]: Not Active
SUVmax [23]: 1.4
Drug uptake [24]: Active
Drug uptake [25]: Active
Drug uptake [26]: Active
Drug uptake [27]: Not Active
Drug uptake [28]: Not Active
Drug uptake [29]: Active
Drug uptake [30]: Active
Drug uptake [31]: Not Active
Compound: O=C(c1ccc2c(ccn2-c2ccc([18F])cc2)c1)N1CC(N2CCN(c3ncccn3)CC2)C1

Reference: ChEMBL document CHEMBL5226342, “Novel Reversible-Binding PET Ligands for Imaging Monoacylglycerol Lipase Based on the Piperazinyl Azetidine Scaffold” (J Med Chem, 2021)
